Data from patent US20170088878A1, “METHOD FOR THE GENERATION OF CHEMICAL LIBRARIES” (ETH ZURICH, priority 2014, published 2017).
pIC50: −log10 of the molar value.

Molecular target: T1, HCV protease (Hepatitis C virus genotype 1a, UniProt P27958)
T1 construct: purchased ProteinOne
Experiment: biochemical
Method: The HCV protease assay kits were purchased from ProteinOne and experiments were performed according to the manual provided.
Assay solution (100 μL) was added to each well by a multichannel pipette (Eppendorf Research) and the fluorescence signals were recorded immediately.
Fluorescence signals were recorded at 90 min. The experiment was repeated in triplicate. IC50 was calculated via nonlinear regression using the software package GraphPad Prism 5.

T1 sequence (P27958 1027-1208, other chains not shown): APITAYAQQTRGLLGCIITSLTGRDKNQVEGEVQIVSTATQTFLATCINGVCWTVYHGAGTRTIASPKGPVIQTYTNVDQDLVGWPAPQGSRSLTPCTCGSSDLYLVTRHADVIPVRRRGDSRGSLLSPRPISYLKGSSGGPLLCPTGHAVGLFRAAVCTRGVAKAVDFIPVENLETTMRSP

Compound: CC(C)(C)OC(=O)CC[C@@H](CC(=O)C(=O)NCc1ccc(Cl)cc1)NC(=O)C[C@@H](NC(=O)C[C@@H](NC(=O)C[C@@H](NC(=O)CCC(=O)O)C1CCCCC1)C1CCCCC1)C1CCCCC1 [I^3-M^5-M^5-M^5-T^4]
- pIC50: 6.00
